Test results: US20170107179A1 (Tetraphase Pharmaceuticals, Inc., priority 2010, published 2017)
Converted amounts (≈) assume the structure as drawn. Read-outs that look alike come from different tables or passages of the source.

How the values were obtained:
S. aureus Smith = assay: Mouse systemic infection (septicemia) model, CD-1 mice; conditions: Staphylococcus aureus, in Mus musculus, 48 h; for responders at 3 mg/kg: iv, read-out: Percent survival at 48 hours, IV (3 mg/kg); for responders at 30 mg/kg: po, read-out: Percent survival at 48 hours, PO (30 mg/kg)
[1] = test system: Gram-negative and Gram-positive organisms (clinical isolates); assay: Broth microdilution MIC against clinical isolates (CLSI M7-A8), Table 9; type: cell-based
[2] = Stenotrophomonas maltophilia, n=29
[3] = Klebsiella aerogenes, Enterobacter aerogenes, n=30
[4] = Klebsiella pneumoniae, Klebsiella pneumonia, n=27
[5] = Salmonella species, n=30, read-out: MIC50
[6] = Staphylococcus aureus, Staphylococcus aureus (MRSA PVL+), n=30, read-out: MIC50
[7] = Staphylococcus aureus, Staphylococcus aureus (MRSA PVL+), n=30, read-out: MIC90
[8] = Streptococcus intermedius, n=30

| Compound | responders at 3 mg/kg (S. aureus Smith) [%] | responders at 30 mg/kg (S. aureus Smith) [%] | MIC50 ([1]; Enterobacter cloacae, n=29) | MIC90 ([1]; Enterobacter cloacae, n=29) [µg/mL] | MIC50 ([1]; Escherichia coli, n=40) [µg/mL] | MIC90 ([1]; Escherichia coli, n=40) [µg/mL] | MIC50 ([1]; Kiebsielia oxytoca, n=30) | MIC90 ([1]; Kiebsielia oxytoca, n=30) [µg/mL] | MIC50 ([1]; Morganella morganii, n=30) [µg/mL] | MIC90 ([1]; Morganella morganii, n=30) [µg/mL] | MIC50 ([1]; Proteus vulgaris, n=29) [µg/mL] | MIC90 ([1]; Proteus vulgaris, n=29) [µg/mL] | MIC50 ([1]; Serratia marcescens, n=30) [µg/mL] | MIC90 ([1]; Serratia marcescens, n=30) [µg/mL] | MIC50 [1, 2] [µg/mL] | MIC90 [1, 2] [µg/mL] | other results |
| --- | --- | --- | --- | --- | --- | --- | --- | --- | --- | --- | --- | --- | --- | --- | --- | --- | --- |
| CC(C)CN1CC(=O)Nc2c(O)c3c(c(F)c2C1)C[C@H]1C[C@H]2[C@H](N(C)C)C(O)=C(C(N)=O)C(=O)[C@@]2(O)C(O)=C1C3=O [Compound 400] | 100 | 0 | – | – | – | – | – | – | – | – | – | – | – | – | – | – | – |
| CC(C)C[C@H]1NCc2c(F)c3c(c(O)c2NC1=O)C(=O)C1=C(O)[C@]2(O)C(=O)C(C(N)=O)=C(O)[C@@H](N(C)C)[C@@H]2C[C@@H]1C3 [Compound 419] | 100 | 40 | – | – | – | – | – | – | – | – | – | – | – | – | – | – | – |
| CCC(C)(C)N1Cc2c(O)c3c(c(Cl)c2C1)C[C@H]1C[C@H]2[C@H](N(C)C)C(O)=C(C(N)=O)C(=O)[C@@]2(O)C(O)=C1C3=O [Compound 150] | 0 | 0 | – | – | – | – | – | – | – | – | – | – | – | – | – | – | – |
| CCCN1CCc2c(O)c3c(c(F)c2C1)C[C@H]1C[C@H]2[C@H](N(C)C)C(O)=C(C(N)=O)C(=O)[C@@]2(O)C(O)=C1C3=O [Compound 304] | 0 | 17 | – | – | – | – | – | – | – | – | – | – | – | – | – | – | – |
| CN(C)CC(=O)N1Cc2c(O)c3c(c(F)c2C1)C[C@H]1C[C@H]2[C@H](N(C)C)C(O)=C(C(N)=O)C(=O)[C@@]2(O)C(O)=C1C3=O [Compound 131] | 100 | 17 | – | – | – | – | – | – | – | – | – | – | – | – | – | – | – |
| colistin | – | – | ≦0.12 μg/ml | >2 | 0.25 | 0.5 | ≦0.12 μg/ml | 0.25 | >2 | >2 | >2 | >2 | >2 | >2 | 0.25 | >2 | MIC50 ([1]; Acinetobacter lwoffii, n=29): ≦0.12 μg/ml; MIC90 ([1]; Acinetobacter lwoffii, n=29): >2 µg/mL; MIC50 ([1]; Enterobacter aerogenes, n=30): ≦0.12 μg/ml; MIC90 ([1]; Enterobacter aerogenes, n=30): ≦0.12 μg/ml; MIC50 ([1]; Klebsiella pneumonia, n=27): 0.25 µg/mL; MIC90 ([1]; Klebsiella pneumonia, n=27): 0.5 µg/mL; MIC50 ([1]; Salmonella species, n=30): ≦0.12 μg/ml; MIC90 ([1]; Salmonella species, n=30): 0.5 µg/mL; MIC50 ([1]; Shigella species, n=30): ≦0.12 μg/ml; MIC90 ([1]; Shigella species, n=30): ≦0.12 μg/ml |
| CC(C)(O/N=C(\C(=O)N[C@@H]1C(=O)N2C(C(=O)[O-])=C(C[n+]3ccccc3)CS[C@H]12)c1csc(N)n1)C(=O)O [Ceftazidime] | – | – | > 64 µg/mL | > 64 | 64 (≈ 117 µM) | > 64 | ≤ 0.5 µg/mL | ≤ 0.5 | ≤ 0.5 | 4 (≈ 7.32 µM) | ≤ 0.5 | > 64 | ≤ 0.5 | ≤ 0.5 | 8 (≈ 14.6 µM) | > 64 | MIC50 ([1]; Acinetobacter lwoffii, n=29): 1 µg/mL (≈ 1.83 µM); MIC90 ([1]; Acinetobacter lwoffii, n=29): 16 µg/mL (≈ 29.3 µM); MIC50 [1, 3]: ≤ 0.5 µg/mL; MIC90 [1, 3]: 16 µg/mL (≈ 29.3 µM); MIC50 [1, 4]: > 64 µg/mL; MIC90 [1, 4]: > 64 µg/mL; MIC50 [1, 5]: ≤ 0.5 µg/mL |
| CCC[C@@H]1C[C@@H](C(=O)N[C@@H]([C@H]2O[C@H](SC)[C@H](O)[C@@H](O)[C@H]2O)[C@H](C)Cl)N(C)C1 [Clindamycin] | – | – | – | – | – | – | – | – | – | – | – | – | – | – | – | – | MIC50 [1]: 0.03 µg/mL (≈ 0.0706 µM); MIC90 [1]: 0.06 µg/mL (≈ 0.141 µM); MIC50 [1, 6]: 0.06 µg/mL (≈ 0.141 µM); MIC90 [1, 7]: 0.12 µg/mL (≈ 0.282 µM); MIC50 ([1]; Streptococcus anginosus, n=20): ≤ 0.015 µg/mL; MIC90 ([1]; Streptococcus anginosus, n=20): 0.03 µg/mL (≈ 0.0706 µM); MIC50 [1, 8]: ≤ 0.015 µg/mL; MIC90 [1, 8]: 0.06 µg/mL (≈ 0.141 µM); MIC50 ([1]; Streptococcus mitis, n=29): 0.03 µg/mL (≈ 0.0706 µM); MIC90 ([1]; Streptococcus mitis, n=29): 0.06 µg/mL (≈ 0.141 µM) |
| C[C@@H](O)[C@H]1C(=O)N2C(C(=O)O)=C(S[C@@H]3CN[C@H](C(=O)Nc4cccc(C(=O)O)c4)C3)[C@H](C)[C@H]12 [Ertapenem] | – | – | ≤ 1 µg/mL | > 8 | ≤ 1 | ≤ 1 | ≤ 1 µg/mL | ≤ 1 | ≤ 1 | ≤ 1 | ≤ 1 | ≤ 1 | ≤ 1 | ≤ 1 | > 8 | > 8 | MIC50 ([1]; Acinetobacter lwoffii, n=29, read-out: MIC50): ≤ 1 µg/mL; MIC90 ([1]; Acinetobacter lwoffii, n=29, read-out: MIC90): 4 µg/mL (≈ 8.41 µM); MIC50 [1, 3]: ≤ 1 µg/mL; MIC90 [1, 3]: ≤ 1 µg/mL; MIC50 [1, 4]: ≤ 1 µg/mL; MIC90 [1, 4]: 8 µg/mL (≈ 16.8 µM); MIC50 [1, 5]: ≤ 1 µg/mL; MIC50 [1, 6]: 4 µg/mL (≈ 8.41 µM); MIC90 [1, 7]: 8 µg/mL (≈ 16.8 µM); MIC50 ([1]; Streptococcus anginosus, n=20): 0.12 µg/mL (≈ 0.252 µM); MIC90 ([1]; Streptococcus anginosus, n=20): 0.25 µg/mL (≈ 0.526 µM); MIC50 [1, 8]: 0.06 µg/mL (≈ 0.126 µM); MIC90 [1, 8]: 0.5 µg/mL (≈ 1.05 µM); MIC50 ([1]; Streptococcus mitis, n=29): 0.25 µg/mL (≈ 0.526 µM); MIC90 ([1]; Streptococcus mitis, n=29): > 1 µg/mL; MIC50 ([1]; Streptococcus sanguis, n=18, read-out: MIC50): 0.12 µg/mL (≈ 0.252 µM); MIC90 ([1]; Streptococcus sanguis, n=18, read-out: MIC90): 0.5 µg/mL (≈ 1.05 µM) |
